# Results reported in DBAASP.
# Several values for one entry are separate records, joined by “and”; a condition that tells them apart may be missing. Equal entries are not always repeated.
# Experiments:
# Experiment in all cases: ≥ marks a high value that may be exact or a test limit, other limits are often not marked, values filed in µg/mL are converted to µM
# [1] = tested on: Alternaria brassicicola
# [2] = tested on: Escherichia coli D31
# [3] = tested on: Bacillus megaterium
# [4] = tested on: Micrococcus luteus
# [5] = tested on: Escherichia coli D22
# [6] = tested on: Fusarium culmorum
# [7] = tested on: Aerococcus viridans
# [8] = tested on: Klebsiella pneumoniae
# [9] = tested on: Neurospora crassa
# [10] = tested on: Botrytis cinerea
# [11] = tested on: Escherichia coli IS37#
# [12] = tested on: Staphylococcus aureus IS10#
# [13] = tested on: Pseudomonas aeruginosa ATCC 27853
# [14] = tested on: Candida parapsilosis ATCC 22019
# [15] = tested on: Enterobacter cloacae ATCC 13047
# [16] = tested on: Enterococcus faecalis ATCC 29212
# [17] = tested on: Escherichia coli IS117#
# [18] = tested on: Candida albicans ATCC 90028
# [19] = tested on: Pseudomonas aeruginosa IS350#
# [20] = tested on: Pseudomonas aeruginosa CMCCB 1010
# [21] = tested on: Candida albicans ATCC 2002
# [22] = tested on: Shigella dysenteriae
# [23] = tested on: Staphylococcus aureus IS37#
# [24] = tested on: Escherichia coli ATCC 25922
# [25] = tested on: Staphylococcus aureus ATCC 25923
# [26] = tested on: Klebsiella pneumoniae ATCC 700603
# [27] = tested on: Klebsiella pneumoniae IS59#
# [28] = tested on: Escherichia coli IS218#
# [29] = tested on: Pseudomonas aeruginosa ATCC 9027
# [30] = tested on: Mycobacterium tuberculosis H37Rv
# [31] = tested on: Candida albicans
# [32] = tested on: Mycobacterium tuberculosis
# [33] = tested on: Candida glabrata
# [34] = tested on: Streptococcus agalactiae
# [35] = tested on: Saccharomyces cerevisiae S288C
# [36] = tested on: Escherichia coli ATCC 11219
# [37] = tested on: Salmonella enterica subsp. enterica serovar Typhimurium ATCC 14028
# [38] = tested on: Staphylococcus aureus ATCC 6538
# [39] = tested on: Pseudomonas aeruginosa ATCC 13388
# [40] = tested on: Klebsiella pneumoniae ATCC 10031
# [41] = tested on: Staphylococcus aureus S015
# [42] = tested on: Enterococcus faecalis ATCC 4028
# [43] = tested on: Staphylococcus aureus ATCC 33591
# [44] = tested on: Candida glabrata ATCC 90030
# [45] = tested on: Staphylococcus aureus ATCC 29213
# [46] = tested on: Staphylococcus epidermidis ATCC 12228
# [47] = tested on: Candida krusei ATCC 6258
compound,measurement,setting,value
CC[C@H](C)[C@H](N)C(=O)N[C@H](C(=O)N[C@@H](Cc1ccc(O)cc1)C(=O)N[C@H]1CSSC[C@@H](C(=O)N[C@@H](CCC(N)=O)C(=O)N[C@@H](CCCN=C(N)N)C(=O)N[C@@H](CCSC)C(=O)O)NC(=O)[C@H](CCCCN)NC(=O)CNC(=O)[C@H]([C@@H](C)O)NC(=O)[C@H](CCCN=C(N)N)NC(=O)[C@H](CCCN=C(N)N)NC(=O)[C@H](CC(N)=O)NC1=O)[C@@H](C)CC [IIYCNRRTGKCQRM],MIC,[1],7.07 µM
same,MIC,[2],28.3 µM
same,MIC,[3],14.1 µM
same,MIC,[4],7.07 µM
same,MIC,[5],28.3 µM
same,MIC,[6],28.3 µM
same,MIC,[7],1.73 µM
same,MIC,[8],28.3 µM
same,MIC,[9],28.3 µM
same,MIC,[10],14.1 µM
CC[C@H](C)[C@H](NC(=O)CNC(=O)[C@H](CO)NC(=O)[C@H](CC(C)C)NC(=O)[C@H](CC(C)C)NC(=O)CN)C(=O)N[C@@H](CC(C)C)C(=O)NCC(=O)N[C@@H](C)C(=O)NCC(=O)N[C@@H](CCCCN)C(=O)N[C@@H](CCCN=C(N)N)C(=O)N[C@H](C(=O)N[C@H](C(=O)N[C@H]1CSSC[C@@H](C(=O)O)NC(=O)[C@H](CC(C)C)NC(=O)CNC(=O)[C@H](CO)NC(=O)[C@H](CC(C)C)NC(=O)CNC1=O)C(C)C)[C@@H](C)CC [GLLSGILGAGKRIVCGLSGLC],MIC,[11],5.03 µM
same,MIC,[12],2.52 µM
same,MIC,[13],5.03 µM
same,MIC,[14],2.52 µM
same,MIC,[15],2.52 µM
same,MIC,[16],5.03 µM
same,MIC,[17],5.03 µM
same,MIC,[18],1.26 µM
same,MIC,[19],10.1 µM
same,MIC,[20],0.503 µM
same,MIC,[21],1.01 µM
same,MIC,[22],5.03 µM
same,MIC,[23],5.03 µM
same,MIC,[24],2.52 µM
same,MIC,[25],5.03 µM
same,MIC,[26],0.503 µM
same,MIC,[27],10.1 µM
same,MIC,[28],10.1 µM
CC[C@H](C)[C@H](NC(=O)[C@H](CCCCN)NC(=O)[C@H](CCCCN)NC(=O)[C@@H](NC(=O)[C@H](C)NC(=O)[C@H](CO)NC(=O)[C@@H](NC(=O)[C@H](C)NC(=O)[C@H](CO)NC(=O)[C@@H]1CCCN1C(=O)[C@@H](NC(=O)[C@H](CC(C)C)NC(=O)[C@H](CO)NC(=O)[C@H](CC(C)C)NC(=O)[C@H](CC(C)C)NC(=O)[C@H](Cc1ccccc1)NC(=O)[C@H](Cc1ccccc1)NC(=O)[C@@H]1CCCN1C(=O)[C@@H](N)CC(C)C)[C@@H](C)CC)[C@@H](C)CC)[C@@H](C)CC)C(N)=O [LPFFLLSLIPSAISAIKKI],MIC,[29],2.5 µM
same,MIC,[30],17.4 µM
same,MIC,[31],6.25 µM
same,MIC,[24],24 µM
same,MIC,[25],2.5 µM
same,MIC,[32],4.8 µM
same,MIC,[33],≥ 50 µM
same,MIC,[34],2.5 µM
CC(C)C[C@H](NC(=O)[C@H](CC(N)=O)NC(=O)[C@H](Cc1c[nH]c2ccccc12)NC(=O)[C@@H](NC(=O)CNC(=O)CNC(=O)[C@H](CCCN=C(N)N)NC(=O)[C@H](CC(=O)O)NC(=O)[C@H](CC(C)C)NC(=O)[C@H](CCCN=C(N)N)NC(=O)[C@@H](N)CCCN=C(N)N)C(C)C)C(=O)N[C@@H](CC(N)=O)C(=O)N[C@H](C(=O)N[C@@H](CC(N)=O)C(=O)N1CCC[C@H]1C(=O)NCC(=O)N[C@H](C(=O)N[C@H](C(=O)NCC(=O)N[C@@H](C)C(=O)N[C@@H](CCCN=C(N)N)C(=O)N[C@H](C(=O)N[C@@H](Cc1c[nH]c2ccccc12)C(=O)N[C@@H](C)C(=O)N[C@@H](CCCN=C(N)N)C(=O)N[C@H](C(=O)N[C@@H](CCCCN)C(N)=O)[C@@H](C)O)C(C)C)[C@@H](C)O)[C@@H](C)O)C(C)C [RRLDRGGVWNLNVNPGTTGARVWARTK],MIC,[35],≥ 40 µM
CC[C@H](C)[C@H](NC(=O)[C@H](CC(=O)O)NC(=O)[C@H](Cc1cnc[nH]1)NC(=O)[C@H](C)NC(=O)CN)C(=O)N[C@@H](CC(C)C)C(=O)N[C@@H](CCCCN)C(=O)N[C@@H](Cc1ccc(O)cc1)C(=O)NCC(=O)N[C@@H](CCCCN)C(=O)N1CCC[C@H]1C(=O)N[C@@H](CO)C(N)=O [GAHDILKYGKPS],MIC,[36],≥ 50 µM
same,MIC,[37],> 50 µM
same,MIC,[38],30 µM
same,MIC,[39],≥ 50 µM
same,MIC,[40],≥ 50 µM
CC[C@H](C)[C@H](NC(=O)[C@H](CC(C)C)NC(=O)CNC(=O)CNC(=O)[C@@H](NC(=O)[C@H](CC(C)C)NC(=O)[C@H](CO)NC(=O)[C@@H]1CCCN1C(=O)[C@@H](NC(=O)[C@H](CC(C)C)NC(=O)[C@H](CO)NC(=O)[C@H](Cc1ccccc1)NC(=O)[C@@H](N)Cc1ccccc1)[C@@H](C)CC)C(C)C)C(=O)N[C@@H](CO)C(=O)N[C@@H](C)C(=O)N[C@@H](Cc1ccccc1)C(=O)N[C@@H](CCCCN)C(N)=O [FFSLIPSLVGGLISAFK],MIC,[13],> 150 µM
same,MIC,[15],≥ 150 µM
same,MIC,[16],> 139 µM
same,MIC,[18],≥ 34.8 µM
same,MIC,[41],≥ 139 µM
same,MIC,[42],≥ 150 µM
same,MIC,[43],17.4 µM
same,MIC,[44],≥ 69.5 µM
same,MIC,[45],8.68 µM and 9.37 µM
same,MIC,[24],> 139 µM
same,MIC,[46],9.38 µM and 9.37 µM
same,MIC,[47],≥ 69.5 µM
